ChEMBL document CHEMBL1155639, “Synthesis of 16,18-dihydroxycleroda-3,13Z-dien-16,15-olide, (+)-16-hydroxycleroda-3,13Z-dien-16,15-olide, and (-)-hydroxyhalima-5(10),13-dien-16,15-olide from (+)-hardwickiic acid” (2000)

Tested on: Mycobacterium tuberculosis
Assay: Antitubercular activity against Mycobacterium tuberculosis at 12.5 ug/mL by TAACF method
Format: functional

CC1=CCC[C@H]2[C@](C)(CCC3=CC(=O)OC3O)[C@@H](C)CC[C@]12C (stereo partly specified)
inhibition at 12.5 µg/mL: 85%
